Assay results reported in patent US9962623B2, “Process to remove product alcohols from fermentation broth” (BUTAMAX ADVANCED BIOFUELS LLC, priority 2011, dated 2018).

Tested on: yeast strain, Saccharomyces cerevisiae
Experiment: Effect of disinfectant on cell viability
Assay type: cell-based
Conditions: 5 mL cells mixed with 5 mL disinfectant solution
Procedure: A study was conducted to determine the effect of disinfectant on the viability of a yeast strain, Saccharomyces cerevisiae. The primary culture was prepared by incubating seed stock of the yeast in 10 mL tubes containing YPS media at 30° C. for 24 hours in an incubator shaker (Innova 4200, New Brunswick Scientific, Edison, N.J.). Klett flasks containing 50 mL broth were then inoculated with the aliquots of primary culture, and the flasks were incubated at 30° C. in an incubator shaker. The cells were grown until the Klett readings reached about 220. Dey-Engley neutralizing broth (DE broth) (Sigma-Aldrich Corp., St. Louis, Mo.) was used as the neutralizing dilution agent. […] Thin plates were also prepared with the DE broth/agar. […] Cells (5 mL) were mixed with 5 mL sterile PBS or 5 mL of the disinfectant solutions, and incubated for various time points (0.5, 1, 2.5, 5, or 10 minutes). […] After drying, the plates were inverted and incubated at 30° C. The black bar denotes the maximum detection limit of this test.

Measured: cell viability (cells counted on DE broth/agar plates)

CCO [70% alcohol, ethanol]
<10: 0.5 minutes incubation | 1 minute incubation | 2.5 minutes incubation | 5 minutes incubation | 10 minutes incubation
